Source: patent publication US20040024024A1, “Aromatic sulfone hydroxamates and their use as protease inhibitors” (priority 2001, published 2004)

Tests used:
[1] = target: T1, Human recombinant MMP-2 (Homo sapiens, UniProt P08253); assay: In vitro MMP inhibition, Ki determination (fluorogenic substrate II); type: biochemical
T1 construct: made in house; host or cells: MMP-2-transfected p2AHT2 cells
T1 sequence (P08253 110-660): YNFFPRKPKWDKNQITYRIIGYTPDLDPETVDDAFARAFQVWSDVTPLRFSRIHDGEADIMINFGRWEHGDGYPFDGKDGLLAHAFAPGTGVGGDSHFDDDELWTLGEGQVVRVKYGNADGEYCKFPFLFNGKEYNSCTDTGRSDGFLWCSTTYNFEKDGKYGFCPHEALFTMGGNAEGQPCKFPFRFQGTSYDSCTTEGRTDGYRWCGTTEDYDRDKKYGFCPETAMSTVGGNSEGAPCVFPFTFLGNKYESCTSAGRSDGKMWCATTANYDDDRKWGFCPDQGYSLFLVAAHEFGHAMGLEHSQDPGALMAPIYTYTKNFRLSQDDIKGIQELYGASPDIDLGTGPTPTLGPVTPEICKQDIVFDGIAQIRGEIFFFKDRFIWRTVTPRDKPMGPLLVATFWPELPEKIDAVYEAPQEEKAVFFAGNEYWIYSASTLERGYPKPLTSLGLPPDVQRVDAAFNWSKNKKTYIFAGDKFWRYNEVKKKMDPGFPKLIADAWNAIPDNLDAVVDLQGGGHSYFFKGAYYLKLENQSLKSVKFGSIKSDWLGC

[2] = target: T2, Human recombinant MMP-14 (Homo sapiens, UniProt P50281); assay: as above; type: biochemical
T2 construct: The catalytic domain enzyme was expressed in E. coli inclusion bodies, solubilized in urea; made in house
How it was run: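 Refolded E. coli-expressed MMP-14 catalytic domain, APMA- or trypsin-activated, incubated 1 h at room temperature with 4 μM fluorogenic substrate II in pH 7.5 Tris/NaCl/CaCl2 buffer; fluorescence read at 330/420 nm. Ki from Morrison-equation non-linear regression, substrate at or below Km, uncorrected for substrate.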

| SMILES | Ki ([1]; value in parenthesis) [nM] | Ki ([2]; value in parenthesis) [µM] | Ki ([1]; value in parentheses) [nM] | Ki ([2]; value in parentheses) [µM] |
| --- | --- | --- | --- | --- |
| CCCCc1ccc(-c2noc(CCCOc3ccc(S(=O)(=O)C4(C(=O)NO)CCOCC4)cc3)n2)c(C)c1 [Example 183] | 643 | > 10 | – | – |
| COCCN1CCC(C(=O)NO)(S(=O)(=O)c2ccc(OCCCc3nc(-c4ccc(C5(c6ccccc6)CC5)cc4)no3)cc2)CC1 [Example 185] | 116 | > 10 | – | – |
| COCCN1CCC(C(=O)NO)(S(=O)(=O)c2ccc(OCCCc3nc(-c4cccc5ccccc45)no3)cc2)CC1 [Example 199] | 228 | > 10 | – | – |
| CCCC(=O)CCCOc1ccc(S(=O)(=O)C2(C(=O)NO)CCOCC2)cc1 [Example 505] | – | – | 2.56 | 0.962 |
| CCCCC(=O)CCCOc1ccc(S(=O)(=O)C2(C(=O)NO)CCOCC2)cc1 [Example 506] | – | – | 1.92 | 0.681 |
| CCCCCCCOc1ccc(S(=O)(=O)C2(C(=O)NO)CCOCC2)cc1 [Example 507] | – | – | 0.84 | 0.444 |
| COCCN1CCC(C(=O)NO)(S(=O)(=O)c2ccc(OCCCc3cncc(-c4ccccc4)c3)cc2)CC1 [Example 508] | – | – | 22.8 | 2.79 |
| COCCN1CCC(C(=O)NO)(S(=O)(=O)c2ccc(OCCCc3cccc(-c4cccs4)c3)cc2)CC1 [Example 510] | – | – | 7.85 | 2.18 |
| COCCN1CCC(C(=O)NO)(S(=O)(=O)c2ccc(OCCCc3cccc(-c4ccc(F)cc4F)c3)cc2)CC1 [Example 513] | – | – | 880 | 9.27 |
| Cc1ccc(NC(=O)CCCOc2ccc(S(=O)(=O)C3(C(=O)NO)CCOCC3)cc2)cc1I [Example 527] | – | – | 21.3 | 1.36 |
| CCCCc1ccc(CCCOc2ccc(S(=O)(=O)C3(C(=O)NO)CCOCC3)cc2)cn1 [Example 533] | – | – | 29.3 | 6.68 |
| CN1CCC(C(=O)NO)(S(=O)(=O)c2ccc(SCCNC(=O)c3cc4ccccc4o3)cc2)CC1 [Example 536] | – | – | 744 | > 10 |
| COCCN1CCC(C(=O)NO)(S(=O)(=O)c2ccc(OCCc3cccc(-c4cccnc4)c3)cc2)CC1 [Example 539] | – | – | 38.6 | 1.18 |
| COCCN1CCC(C(=O)NO)(S(=O)(=O)c2ccc(OCCc3cccc(-c4ccccc4F)c3)cc2)CC1 [Example 540] | – | – | 270 | > 10 |
| O=C(NCCSc1ccc(S(=O)(=O)C2(C(=O)NO)CCN(C3CC3)CC2)cc1)c1nc2ccccc2s1 [Example 541] | – | – | 302 | > 10 |
| O=C(NCCSc1ccc(S(=O)(=O)C2(C(=O)NO)CCN(C3CC3)CC2)cc1)c1cc2ccccc2o1 [Example 542] | – | – | 234 | > 10 |

| SMILES | Ki ([1]; value in parenthesis) [nM] | Ki ([2]; value in parenthesis) [µM] | Ki ([1]; value in parentheses) [nM] | Ki ([2]; value in parentheses) [µM] |
| --- | --- | --- | --- | --- |
| COCCN1CCC(C(=O)NO)(S(=O)(=O)c2ccc(OCCc3ccc(-c4ccc(C#N)cc4)cc3)cc2)CC1 [Example 543] | – | – | 124 | 3.09 |
| COCCN1CCC(C(=O)NO)(S(=O)(=O)c2ccc(OCCc3cccc(-c4cccc(F)c4)c3)cc2)CC1 [Example 545] | – | – | 310 | > 10 |
| COCCN1CCC(C(=O)NO)(S(=O)(=O)c2ccc(OCCc3cccc(-c4ccc(F)cc4F)c3)cc2)CC1 [Example 546] | – | – | 426 | > 10 |
| COCCN1CCC(C(=O)NO)(S(=O)(=O)c2ccc(OCCc3cccc(-c4ccccn4)c3)cc2)CC1 [Example 548] | – | – | 1.58 | 7.42 |
| COCCN1CCC(C(=O)NO)(S(=O)(=O)c2ccc(OCCc3cccc(-c4ccc(F)c(F)c4)c3)cc2)CC1 [Example 549] | – | – | 504 | > 10 |
| CCCc1ccc(COc2ccc(S(=O)(=O)C3(C(=O)NO)CCOCC3)cc2)cn1 [Example 550] | – | – | 5.49 | 2.18 |
| CCCCc1ccc(COc2ccc(S(=O)(=O)C3(C(=O)NO)CCOCC3)cc2)cn1 [Example 551] | – | – | 5.07 | 2.06 |
| CCc1ccc(COc2ccc(S(=O)(=O)C3(C(=O)NO)CCOCC3)cc2)cn1 [Example 552] | – | – | 4.94 | 2.44 |
| COCCN1CCC(C(=O)NO)(S(=O)(=O)c2ccc(OCCNC(=O)c3cc4ccccc4o3)cc2)CC1 [Example 553] | – | – | 7.8 | 2.26 |
| O=C(NO)C1(S(=O)(=O)c2ccc(OCCOc3cncnc3)cc2)CCOCC1 [Example 554] | – | – | 61.3 | > 10 |
| O=C(NO)C1(S(=O)(=O)c2ccc(OCCCOCc3ccncc3)cc2)CCOCC1 [Example 555] | – | – | 3.38 | 0.689 |
| O=C(NO)C1(S(=O)(=O)c2ccc(OCCc3ccccn3)cc2)CCOCC1 [Example 556] | – | – | 68.1 | 3.5 |
| O=C(NO)C1(S(=O)(=O)c2ccc(OCCCOc3cncnc3)cc2)CCOCC1 [Example 559] | – | – | 11.7 | 0.845 |
| O=C(NO)C1(S(=O)(=O)c2ccc(OCCCOc3cccnc3)cc2)CCOCC1 [Example 560] | – | – | 10.3 | 0.549 |
| O=C(NCCOc1ccc(S(=O)(=O)C2(C(=O)NO)CCOCC2)cc1)c1c[nH]c2ccccc12 [Example 562] | – | – | 241 | 9.27 |
| O=C(NCCSc1ccc(S(=O)(=O)C2(C(=O)NO)CCOCC2)cc1)c1nc2ccccc2s1 [Example 598] | – | – | 599 | > 10 |

The next lines start with the values.

| Ki ([1]; value in parenthesis) [nM] | Ki ([2]; value in parenthesis) [µM] | Ki ([1]; value in parentheses) [nM] | Ki ([2]; value in parentheses) [µM] | SMILES |
| --- | --- | --- | --- | --- |
| 3190 | > 10 | – | – | O=C(NO)C1(S(=O)(=O)c2ccc(OCCCc3cccc(-c4ccc(Cl)cc4Cl)c3)cc2)CCOCC1 [Example 171] |
| > 10000 | > 10 | – | – | O=C(NO)C1(S(=O)(=O)c2ccc(OCCCc3cccc(-c4cc(Cl)cc(Cl)c4)c3)cc2)CCOCC1 [Example 172] |
| – | – | 434 | > 10 | O=C(NO)C1(S(=O)(=O)c2ccc(OCCCc3ccc(F)c(-c4ccccc4)c3)cc2)CCOCC1 [Example 504] |
| – | – | 89.3 | 4.16 | COCCN1CCC(C(=O)NO)(S(=O)(=O)c2ccc(OCCCc3cccc(-c4cccnc4)c3)cc2)CC1 [Example 509] |
| – | – | 526 | > 10 | COCCN1CCC(C(=O)NO)(S(=O)(=O)c2ccc(OCCCc3cccc(-c4cccc(F)c4)c3)cc2)CC1 [Example 511] |
| – | – | 758 | > 10 | COCCN1CCC(C(=O)NO)(S(=O)(=O)c2ccc(OCCCc3cccc(-c4ccccc4F)c3)cc2)CC1 [Example 512] |
| – | – | 293 | 4.08 | COCCN1CCC(C(=O)NO)(S(=O)(=O)c2ccc(OCCCc3cccc(-c4ccc(C#N)cc4)c3)cc2)CC1 [Example 514] |
| – | – | 1680 | > 10 | CCN1CCC(C(=O)NO)(S(=O)(=O)c2ccc(OCCCc3cccc(-c4ccc(Cl)cc4)c3)cc2)CC1 [Example 526] |
| – | – | 83.5 | 5.7 | CCC(=O)c1cccc(CCCOc2ccc(S(=O)(=O)C3(C(=O)NO)CCOCC3)cc2)c1 [Example 528] |
| – | – | 3550 | > 10 | O=C(NO)C1(S(=O)(=O)c2ccc(OCCCc3cccc(-c4ccc(O)cc4)c3)cc2)CCOCC1 [Example 529] |
| – | – | 699 | > 10 | O=C(NO)C1(S(=O)(=O)c2ccc(OCCCc3cccc(-c4cccc(O)c4)c3)cc2)CCOCC1 [Example 530] |
| – | – | 337 | > 10 | O=C(NO)C1(S(=O)(=O)c2ccc(OCCc3ccc(-c4ccc(O)cc4)cc3)cc2)CCOCC1 [Example 531] |
| – | – | 739 | > 10 | O=C(NO)C1(S(=O)(=O)c2ccc(OCCc3ccc(-c4cccc(O)c4)cc3)cc2)CCOCC1 [Example 532] |
| – | – | 25.4 | 6.81 | CCCc1ccc(CCCOc2ccc(S(=O)(=O)C3(C(=O)NO)CCOCC3)cc2)cn1 [Example 534] |
| – | – | 23.2 | 3.87 | CCc1ccc(CCCOc2ccc(S(=O)(=O)C3(C(=O)NO)CCOCC3)cc2)cn1 [Example 535] |
| – | – | 24.6 | 1.7 | COCCN1CCC(C(=O)NO)(S(=O)(=O)c2ccc(OCCc3cccc(-c4ccncc4)c3)cc2)CC1 [Example 538] |
| – | – | 302 | > 10 | COCCN1CCC(C(=O)NO)(S(=O)(=O)c2ccc(OCCc3cccc(-c4ccc(F)cc4)c3)cc2)CC1 [Example 544] |
| – | – | 727 | > 10 | COCCN1CCC(C(=O)NO)(S(=O)(=O)c2ccc(OCCc3cccc(-c4ccc(Cl)cc4)c3)cc2)CC1 [Example 547] |
| – | – | 6.46 | 0.0522 | O=C(NO)C1(S(=O)(=O)c2ccc(OCCc3cccnc3)cc2)CCOCC1 [Example 557] |
| – | – | 289 | 4.3 | C#Cc1ccc(-c2cccc(CCCOc3ccc(S(=O)(=O)C4(C(=O)NO)CCN(CCOC)CC4)cc3)c2)cc1 [Example 646] |
